Laboratory results: patent US20080312164A1 (priority 2006, published 2008)

Assays:
Du145 cells [1] = experiment: Calcein AM cytotoxicity assay, Du145; type: cell-based; details: Homo sapiens, DU-145; Du145, Calcein AM, 72 h; read-out: IC50
Excerpt: (§1) Five serial 1:2 dilutions were made with anhydrous DMSO at 100× the final concentration used in the assay.

Du145 cells [2] = experiment: Cell Titer-Glo cytotoxicity assay, Du145; type: cell-based; details: Homo sapiens, DU-145; Du145, Cell Titer-Glo, 72 h; read-out: IC50
Excerpt: as §1

HCT-116 cells [3] = experiment: Calcein AM cytotoxicity assay, HCT-116; type: cell-based; details: Homo sapiens; HCT-116, Calcein AM, 72 h; read-out: IC50
Excerpt: as §1

HCT-116 cells [4] = experiment: Cell Titer-Glo cytotoxicity assay, HCT-116; type: cell-based; details: Homo sapiens; HCT-116, Cell Titer-Glo, 72 h; read-out: IC50
Excerpt: as §1

Hep3B cells [5] = experiment: Calcein AM cytotoxicity assay, Hep3B; type: cell-based; details: Homo sapiens, Calcein AM, 72 h, read-out: IC50
Excerpt: as §1

Hep3B cells [6] = experiment: Cell Titer-Glo cytotoxicity assay, Hep3B; type: cell-based; details: Homo sapiens, Cell Titer-Glo, 72 h, read-out: IC50
Excerpt: as §1

SF-268 cells [7] = experiment: Calcein AM cytotoxicity assay, SF-268; type: cell-based; details: Homo sapiens; SF-268, Calcein AM, 72 h; read-out: IC50
Excerpt: as §1

SF-268 cells [8] = experiment: Cell Titer-Glo cytotoxicity assay, SF-268; type: cell-based; details: Homo sapiens; SF-268, Cell Titer-Glo, 72 h; read-out: IC50
Excerpt: as §1

SK-OV-3 cells [9] = experiment: Calcein AM cytotoxicity assay, SK-OV-3; type: cell-based; details: Homo sapiens; SK-OV-3, Calcein AM, 72 h; read-out: IC50
Excerpt: as §1

SK-OV-3 cells [10] = experiment: Cell Titer-Glo cytotoxicity assay, SK-OV-3; type: cell-based; details: Homo sapiens; SK-OV-3, Cell Titer-Glo, 72 h; read-out: IC50
Excerpt: as §1

NCI/ADR RES cells [11] = experiment: Calcein AM cytotoxicity assay, NCI/ADR-RES; type: cell-based; details: Homo sapiens, Calcein AM, 72 h, read-out: IC50
Excerpt: as §1

NCI/ADR RES cells [12] = experiment: Cell Titer-Glo cytotoxicity assay, NCI/ADR-RES; type: cell-based, human; details: Homo sapiens; NCI/ADR-RES, Cell Titer-Glo, 72 h; read-out: IC50
Excerpt: as §1

NCI-H460 cells [13] = experiment: Calcein AM cytotoxicity assay, NCI-H460; type: cell-based; details: Homo sapiens; NCI-H460, Calcein AM, 72 h; read-out: IC50
Excerpt: as §1

NCI-H460 cells [14] = experiment: Cell Titer-Glo cytotoxicity assay, NCI-H460; type: cell-based, human; details: Homo sapiens; NCI-H460, Cell Titer-Glo, 72 h; read-out: IC50
Excerpt: as §1

MCF7 cells [15] = experiment: Calcein AM cytotoxicity assay, MCF7; type: cell-based; details: Homo sapiens; MCF7, Calcein AM, 72 h; read-out: IC50
Excerpt: as §1

MCF7 cells [16] = experiment: Cell Titer-Glo cytotoxicity assay, MCF7; type: cell-based, human; details: Homo sapiens; MCF7, Cell Titer-Glo, 72 h; read-out: IC50
Excerpt: as §1

[17] = tested on: NmuMG mouse mammary normal epithelial cells; experiment: Calcein AM cytotoxicity assay, NmuMG; type: cell-based; details: Epithelial cell, NmuMG, Calcein AM, 72 h, read-out: IC50
Excerpt: as §1

[18] = tested on: NmuMG mouse mammary normal epithelial cells; experiment: Cell Titer-Glo cytotoxicity assay, NmuMG; type: cell-based; details: Mus musculus, Epithelial cell; NmuMG, Cell Titer-Glo, 72 h; read-out: IC50
Excerpt: as §1

HT-29 cells = experiment: MTT cytotoxicity assay, HT-29; type: cell-based; details: Homo sapiens; HT-29, MTT, 24 h; read-out: IC50
human cancer cell lines = experiment: Cytotoxicity across the panel of human cancer cell lines (average, high-throughput assays); type: cell-based; details: average across eight human cancer cell lines; MTT (HT-29) values excluded; read-out: Cancerous Average IC50 / Average IC50 in Cancer Cell Lines
Excerpt: as §1

| Compound | IC50 (Du145 cells [1]) | IC50 (Du145 cells [2]) | IC50 (HCT-116 cells [3]) | IC50 (HCT-116 cells [4]) | IC50 (Hep3B cells [5]) | IC50 (Hep3B cells [6]) | IC50 (SF-268 cells [7]) | IC50 (SF-268 cells [8]) | IC50 (SK-OV-3 cells [9]) | IC50 (SK-OV-3 cells [10]) | IC50 (NCI/ADR RES cells [11]) | IC50 (NCI/ADR RES cells [12]) | IC50 (NCI-H460 cells [13]) | IC50 (NCI-H460 cells [14]) | IC50 (MCF7 cells [15]) | IC50 (MCF7 cells [16]) | IC50 [17] | IC50 [18] | IC50 (HT-29 cells) | IC50 (human cancer cell lines) |
| --- | --- | --- | --- | --- | --- | --- | --- | --- | --- | --- | --- | --- | --- | --- | --- | --- | --- | --- | --- | --- |
| S=C=NCc1ccccc1Br [Compound 25, 1-bromo-2-(isothiocyanatomethyl)benzene] | 3.99 µM | 8.64 µM | 19.6 µM | 3.88 µM | 5.67 µM | 16.3 µM | 6 µM | 7.11 µM | 6.32 µM | 5.01 µM | > 20 µM | 20.1 µM | 19.4 µM | 17.3 µM | 6.76 µM | 2.73 µM | 11.3 µM | 4.6 µM | 26.9 µM | 10.1 µM |
| S=C=NCc1ccc(Br)cc1 [Compound 26, 1-bromo-4-(isothiocyanatomethyl)benzene] | 7.67 µM | 10.1 µM | 5.16 µM | 9.8 µM | 7.16 µM | 6.8 µM | 10.9 µM | 6.96 µM | 3.94 µM | 7.17 µM | > 20 µM | 22.3 µM | 16 µM | > 20 µM | 7.08 µM | 5.92 µM | 18.3 µM | 9.77 µM | 47.4 µM | 10.7 µM |
| COc1cc(OC)c(CN=C=S)c(OC)c1 [Compound 28, 2-(isothiocyanatomethyl)-1,3,5-trimethoxybenzene] | 2.54 µM | 4.8 µM | 9.23 µM | 4.55 µM | 1.87 µM | 3.21 µM | 4.61 µM | 3.05 µM | 3.93 µM | 4.75 µM | 12 µM | 15.2 µM | 11.9 µM | 10.8 µM | 5.75 µM | 3.15 µM | 2.94 µM | 2.09 µM | 17 µM | 6.53 µM |
| S=C=NCc1ccc2c(c1)OCO2 [Compound 29, 5-(isothiocyanatomethyl)benzo[d][1,3]dioxole] | 2.18 µM | 6.24 µM | > 20 µM | 4.77 µM | 3.9 µM | 4.3 µM | 2.55 µM | 3.92 µM | 2.79 µM | 4.44 µM | 6.39 µM | 9.77 µM | 9.59 µM | 11.5 µM | 3.15 µM | 2.51 µM | < 12.5 µM | 17 µM | 30.3 µM | 5.77 µM |
| S=C=NCc1cccc2ccccc12 [Compound 30, 1-(isothiocyanatomethyl)naphthalene] | 8.31 µM | 16.8 µM | > 20 µM | 4.55 µM | 15.2 µM | 19.8 µM | 2 µM | 3.39 µM | 3.22 µM | 4.89 µM | 8.93 µM | 9.71 µM | 12.6 µM | 13.3 µM | < 3.13 µM | 2.27 µM | 13.8 µM | 21.4 µM | > 50 µM | 9.16 µM |
